The target of data set [1] is Tyrosine-protein kinase SYK (Homo sapiens, UniProt P43405). The data set is described as follows: Inhibition of SYK (unknown origin).
Data set [2] relates to Influenza A virus. The data set is described as follows: Antiviral activity against influenza A virus A/PR/8/34 strain incubated with MDCK cells assessed as reduction of viral RNA level equal to 1% of control level after 72 hrs by branched DNA assay. In kind it is functional, organism-based. The following applies: A/Puerto Rico/8/1934(H1N1).
The target in data set [3] is Cyclin-dependent kinase 2 (Homo sapiens, UniProt P24941). Put plainly: Inhibition of CDK2 (unknown origin).
Data set [4] deals with T1, Phosphatidylinositol 4,5-bisphosphate 3-kinase catalytic subunit delta isoform (Homo sapiens, UniProt O00329).
T1 sequence (O00329 whole entry): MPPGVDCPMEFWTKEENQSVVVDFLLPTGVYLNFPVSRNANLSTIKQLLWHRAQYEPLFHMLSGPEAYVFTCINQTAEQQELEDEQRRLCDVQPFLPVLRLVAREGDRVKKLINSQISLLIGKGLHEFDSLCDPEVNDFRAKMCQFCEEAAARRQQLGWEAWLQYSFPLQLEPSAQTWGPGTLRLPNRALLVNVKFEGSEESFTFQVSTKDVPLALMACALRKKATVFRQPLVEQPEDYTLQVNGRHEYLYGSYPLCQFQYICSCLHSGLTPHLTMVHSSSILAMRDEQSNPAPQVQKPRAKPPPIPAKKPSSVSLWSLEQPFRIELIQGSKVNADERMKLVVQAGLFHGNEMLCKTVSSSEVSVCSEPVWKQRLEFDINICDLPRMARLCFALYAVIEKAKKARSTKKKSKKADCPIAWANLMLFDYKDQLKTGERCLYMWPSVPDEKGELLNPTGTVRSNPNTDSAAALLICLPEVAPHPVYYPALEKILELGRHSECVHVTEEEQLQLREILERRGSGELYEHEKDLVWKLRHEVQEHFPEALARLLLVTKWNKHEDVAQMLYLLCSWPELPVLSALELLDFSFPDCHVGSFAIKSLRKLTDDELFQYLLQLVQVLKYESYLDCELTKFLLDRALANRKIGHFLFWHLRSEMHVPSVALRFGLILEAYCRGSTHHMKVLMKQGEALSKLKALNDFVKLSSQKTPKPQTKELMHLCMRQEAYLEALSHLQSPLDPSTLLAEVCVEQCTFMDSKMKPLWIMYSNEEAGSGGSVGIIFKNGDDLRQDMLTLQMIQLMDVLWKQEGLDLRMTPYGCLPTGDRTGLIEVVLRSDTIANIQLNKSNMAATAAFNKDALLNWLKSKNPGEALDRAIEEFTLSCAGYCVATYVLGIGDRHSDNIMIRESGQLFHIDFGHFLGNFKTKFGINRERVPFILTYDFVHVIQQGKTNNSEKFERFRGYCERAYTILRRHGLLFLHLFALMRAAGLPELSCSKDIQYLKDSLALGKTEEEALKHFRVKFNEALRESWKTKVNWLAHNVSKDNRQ
The data set is described as follows: Inhibition of PI3Kdelta (unknown origin).

Data set [5] addresses Serine/threonine-protein kinase PLK1 (Homo sapiens, UniProt P53350). The data set is described as follows: Inhibition of PLK (unknown origin).
Data set [6] has as its target Vascular endothelial growth factor receptor 2 (Homo sapiens, UniProt P35968). Put plainly: Inhibition of KDR (unknown origin).
The target of data set [7] is Phosphatidylinositol 4,5-bisphosphate 3-kinase catalytic subunit gamma isoform (Homo sapiens, UniProt P48736). The data set is described as follows: Inhibition of PI3Kgamma (unknown origin).
Phosphatidylinositol 4,5-bisphosphate 3-kinase catalytic subunit gamma isoform, sequence (P48736 whole entry, canonical isoform): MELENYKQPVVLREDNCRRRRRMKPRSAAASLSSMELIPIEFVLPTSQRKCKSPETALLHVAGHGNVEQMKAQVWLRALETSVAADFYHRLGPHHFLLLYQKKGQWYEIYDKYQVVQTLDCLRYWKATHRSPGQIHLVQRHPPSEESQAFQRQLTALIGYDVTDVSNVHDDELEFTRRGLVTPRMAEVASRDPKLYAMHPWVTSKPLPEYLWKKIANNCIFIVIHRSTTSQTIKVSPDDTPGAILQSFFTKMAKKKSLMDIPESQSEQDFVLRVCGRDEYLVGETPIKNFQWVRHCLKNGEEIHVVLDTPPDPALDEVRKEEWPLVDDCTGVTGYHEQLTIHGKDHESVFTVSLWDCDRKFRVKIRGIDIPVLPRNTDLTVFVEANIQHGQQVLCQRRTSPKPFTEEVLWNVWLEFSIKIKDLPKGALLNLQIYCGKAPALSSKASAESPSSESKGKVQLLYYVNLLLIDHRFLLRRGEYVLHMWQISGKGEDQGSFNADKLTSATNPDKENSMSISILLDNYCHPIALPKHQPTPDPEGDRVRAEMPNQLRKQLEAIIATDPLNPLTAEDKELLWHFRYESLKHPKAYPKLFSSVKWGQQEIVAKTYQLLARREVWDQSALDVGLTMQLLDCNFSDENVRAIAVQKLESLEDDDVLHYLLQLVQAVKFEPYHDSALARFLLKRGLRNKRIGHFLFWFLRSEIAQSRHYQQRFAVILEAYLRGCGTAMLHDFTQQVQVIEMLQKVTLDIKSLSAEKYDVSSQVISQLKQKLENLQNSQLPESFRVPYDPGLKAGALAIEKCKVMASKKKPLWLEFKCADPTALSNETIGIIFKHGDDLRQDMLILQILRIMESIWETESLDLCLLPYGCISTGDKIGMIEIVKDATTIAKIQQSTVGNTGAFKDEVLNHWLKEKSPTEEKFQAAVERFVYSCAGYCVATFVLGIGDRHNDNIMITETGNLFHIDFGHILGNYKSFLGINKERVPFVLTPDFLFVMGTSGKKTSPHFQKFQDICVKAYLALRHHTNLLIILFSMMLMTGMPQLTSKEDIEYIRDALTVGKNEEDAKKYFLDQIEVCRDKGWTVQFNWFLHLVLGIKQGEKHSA
For data set [8], the target named is cAMP-dependent protein kinase catalytic subunit alpha (Homo sapiens, UniProt P17612). The data set is described as follows: Inhibition of PKAa (unknown origin).
Data set [9] has as its target T2, Interleukin-1 receptor-associated kinase 4 (Homo sapiens, UniProt Q9NWZ3).
T2 sequence (Q9NWZ3 whole entry): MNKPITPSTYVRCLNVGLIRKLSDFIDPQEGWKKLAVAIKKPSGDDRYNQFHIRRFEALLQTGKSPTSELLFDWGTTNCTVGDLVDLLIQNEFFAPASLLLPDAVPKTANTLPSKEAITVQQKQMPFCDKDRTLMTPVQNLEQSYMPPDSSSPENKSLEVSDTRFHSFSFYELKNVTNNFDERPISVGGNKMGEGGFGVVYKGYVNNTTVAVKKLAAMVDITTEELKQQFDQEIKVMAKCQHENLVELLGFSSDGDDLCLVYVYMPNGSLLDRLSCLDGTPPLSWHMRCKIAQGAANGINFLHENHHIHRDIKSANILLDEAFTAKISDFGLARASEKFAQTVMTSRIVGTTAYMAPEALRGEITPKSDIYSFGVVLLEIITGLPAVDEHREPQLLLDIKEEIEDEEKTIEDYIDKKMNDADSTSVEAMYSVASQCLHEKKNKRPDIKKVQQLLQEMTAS
Put plainly: Inhibition of IRAK4 (unknown origin).

Data set [10] deals with Tyrosine-protein kinase JAK2 (Homo sapiens, UniProt O60674). The data set is described as follows: Inhibition of JAK2 (unknown origin).
In data set [11] the target is Phosphatidylinositol 4,5-bisphosphate 3-kinase catalytic subunit beta isoform (Homo sapiens, UniProt P42338). Put plainly: Inhibition of PI3Kbeta (unknown origin).
A short description of data set [12]: Dissociation constant, pKa of the compound by UC titration method. Type of data set: physicochemical.
Data set [13] deals with Rho-associated protein kinase (Homo sapiens, UniProt O75116+Q13464). The data set is described as follows: Inhibition of ROCK (unknown origin). Type of data set: protein-complex assay.
For data set [14], the system named is Influenza A virus. The data set is described as follows: Antiviral activity against Influenza A virus A/PR/8/34 strain incubated with MDCK cells assessed as cell protection after 72 hrs by phenotypic cell protection assay. Type of data set: functional, organism-based. The note with it: A/Puerto Rico/8/1934(H1N1).
The target of data set [15] is Glycogen synthase kinase-3 (Homo sapiens, UniProt P49840+P49841). Put plainly: Inhibition of GSK3 (unknown origin). In kind it is protein assay.
Data set [16] has as its target T3, Receptor-type tyrosine-protein kinase FLT3 (Homo sapiens, UniProt P36888).
T3 sequence (P36888 whole entry): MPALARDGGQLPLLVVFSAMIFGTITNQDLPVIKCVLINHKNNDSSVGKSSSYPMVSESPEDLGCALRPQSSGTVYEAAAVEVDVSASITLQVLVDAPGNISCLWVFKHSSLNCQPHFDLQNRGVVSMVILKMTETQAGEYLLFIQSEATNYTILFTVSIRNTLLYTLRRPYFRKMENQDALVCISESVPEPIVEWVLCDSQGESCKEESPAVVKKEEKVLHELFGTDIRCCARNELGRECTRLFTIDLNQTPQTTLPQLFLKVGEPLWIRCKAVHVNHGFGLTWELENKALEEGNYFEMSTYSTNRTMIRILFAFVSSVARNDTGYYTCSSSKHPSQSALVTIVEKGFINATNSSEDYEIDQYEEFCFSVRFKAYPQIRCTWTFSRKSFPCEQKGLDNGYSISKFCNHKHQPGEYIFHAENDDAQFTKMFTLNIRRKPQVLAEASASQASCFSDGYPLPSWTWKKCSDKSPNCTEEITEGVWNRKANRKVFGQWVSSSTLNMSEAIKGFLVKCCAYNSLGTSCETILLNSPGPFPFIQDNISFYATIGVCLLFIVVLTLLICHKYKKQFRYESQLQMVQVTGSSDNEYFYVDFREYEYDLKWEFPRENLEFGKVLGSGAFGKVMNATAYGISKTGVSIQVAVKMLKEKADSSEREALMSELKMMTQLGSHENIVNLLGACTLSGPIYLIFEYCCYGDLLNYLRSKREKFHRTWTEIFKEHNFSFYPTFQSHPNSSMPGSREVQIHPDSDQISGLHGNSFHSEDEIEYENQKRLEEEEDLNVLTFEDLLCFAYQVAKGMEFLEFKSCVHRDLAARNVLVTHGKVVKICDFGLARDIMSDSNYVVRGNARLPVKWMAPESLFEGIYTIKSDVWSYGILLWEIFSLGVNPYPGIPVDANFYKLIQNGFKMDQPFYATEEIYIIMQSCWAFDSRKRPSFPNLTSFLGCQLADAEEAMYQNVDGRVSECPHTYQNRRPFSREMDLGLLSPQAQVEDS
Put plainly: Inhibition of FLT3 (unknown origin).

The target in data set [17] is Proto-oncogene tyrosine-protein kinase Src (Homo sapiens, UniProt P12931). Put plainly: Inhibition of SRC (unknown origin).
Proto-oncogene tyrosine-protein kinase Src, sequence (P12931 2-536 limits assumed): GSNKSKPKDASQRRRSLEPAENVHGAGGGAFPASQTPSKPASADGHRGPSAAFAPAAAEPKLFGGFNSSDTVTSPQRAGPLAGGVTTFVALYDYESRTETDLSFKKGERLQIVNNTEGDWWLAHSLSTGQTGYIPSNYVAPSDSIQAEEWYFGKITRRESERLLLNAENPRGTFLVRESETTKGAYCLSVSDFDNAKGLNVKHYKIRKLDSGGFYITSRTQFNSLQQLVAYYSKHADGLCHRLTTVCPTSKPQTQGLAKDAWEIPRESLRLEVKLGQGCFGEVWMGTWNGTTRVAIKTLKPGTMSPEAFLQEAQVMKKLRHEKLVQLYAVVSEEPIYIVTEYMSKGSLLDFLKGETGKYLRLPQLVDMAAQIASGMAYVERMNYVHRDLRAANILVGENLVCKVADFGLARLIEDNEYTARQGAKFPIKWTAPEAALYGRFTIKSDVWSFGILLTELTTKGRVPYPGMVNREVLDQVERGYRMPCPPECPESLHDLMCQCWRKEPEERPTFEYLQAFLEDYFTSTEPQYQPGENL
The target in data set [18] is Phosphatidylinositol 4,5-bisphosphate 3-kinase catalytic subunit alpha isoform (Homo sapiens, UniProt P42336). Put plainly: Inhibition of PI3Kalpha (unknown origin).
Phosphatidylinositol 4,5-bisphosphate 3-kinase catalytic subunit alpha isoform, sequence (P42336 whole entry, canonical isoform): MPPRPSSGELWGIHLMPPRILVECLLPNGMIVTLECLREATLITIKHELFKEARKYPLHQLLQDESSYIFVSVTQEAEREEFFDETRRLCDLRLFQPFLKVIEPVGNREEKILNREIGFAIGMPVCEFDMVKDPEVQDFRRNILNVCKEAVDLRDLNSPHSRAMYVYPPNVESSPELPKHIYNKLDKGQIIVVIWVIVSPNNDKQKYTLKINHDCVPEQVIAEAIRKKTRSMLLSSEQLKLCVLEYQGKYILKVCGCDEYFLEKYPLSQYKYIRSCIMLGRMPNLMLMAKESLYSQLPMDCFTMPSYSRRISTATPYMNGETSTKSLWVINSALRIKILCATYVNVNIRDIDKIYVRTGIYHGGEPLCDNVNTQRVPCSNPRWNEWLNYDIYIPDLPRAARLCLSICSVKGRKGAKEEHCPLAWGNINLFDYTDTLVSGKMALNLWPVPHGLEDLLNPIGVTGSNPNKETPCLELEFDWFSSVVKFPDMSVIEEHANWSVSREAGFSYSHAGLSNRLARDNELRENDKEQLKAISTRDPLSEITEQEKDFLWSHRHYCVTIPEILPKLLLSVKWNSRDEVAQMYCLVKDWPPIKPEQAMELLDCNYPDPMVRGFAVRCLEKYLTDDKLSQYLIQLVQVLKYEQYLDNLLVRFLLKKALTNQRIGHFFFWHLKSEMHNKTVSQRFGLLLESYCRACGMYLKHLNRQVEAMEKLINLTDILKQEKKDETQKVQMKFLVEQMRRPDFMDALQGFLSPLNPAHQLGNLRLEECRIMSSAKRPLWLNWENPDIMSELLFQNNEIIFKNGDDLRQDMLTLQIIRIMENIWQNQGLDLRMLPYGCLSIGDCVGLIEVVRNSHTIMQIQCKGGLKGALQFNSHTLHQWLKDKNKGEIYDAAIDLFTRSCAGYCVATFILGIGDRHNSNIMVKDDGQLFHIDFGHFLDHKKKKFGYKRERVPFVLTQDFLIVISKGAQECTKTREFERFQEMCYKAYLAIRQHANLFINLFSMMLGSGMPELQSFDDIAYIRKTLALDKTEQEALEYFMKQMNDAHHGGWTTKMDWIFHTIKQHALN
Data set [19] addresses Hepatocyte growth factor receptor (Homo sapiens, UniProt P08581). The data set is described as follows: Inhibition of MET (unknown origin).
For data set [20], the target named is Mitogen-activated protein kinase 10 (Homo sapiens, UniProt P53779). The data set is described as follows: Inhibition of JNK3 (unknown origin).
Mitogen-activated protein kinase 10, sequence (P53779 whole entry): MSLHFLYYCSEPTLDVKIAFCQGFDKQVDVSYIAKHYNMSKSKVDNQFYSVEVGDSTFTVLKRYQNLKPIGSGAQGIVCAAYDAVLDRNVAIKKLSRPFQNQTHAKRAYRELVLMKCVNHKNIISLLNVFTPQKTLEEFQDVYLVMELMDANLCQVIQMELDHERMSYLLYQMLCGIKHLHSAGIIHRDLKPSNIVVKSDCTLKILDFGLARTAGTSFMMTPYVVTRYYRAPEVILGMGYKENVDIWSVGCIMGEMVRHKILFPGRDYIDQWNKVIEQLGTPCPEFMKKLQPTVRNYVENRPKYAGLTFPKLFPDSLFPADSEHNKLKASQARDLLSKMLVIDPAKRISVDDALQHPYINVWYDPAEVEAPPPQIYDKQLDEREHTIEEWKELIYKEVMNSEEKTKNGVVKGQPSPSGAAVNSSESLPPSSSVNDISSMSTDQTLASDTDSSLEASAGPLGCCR

Vascular endothelial growth factor receptor 2, sequence (P35968 whole entry, canonical isoform): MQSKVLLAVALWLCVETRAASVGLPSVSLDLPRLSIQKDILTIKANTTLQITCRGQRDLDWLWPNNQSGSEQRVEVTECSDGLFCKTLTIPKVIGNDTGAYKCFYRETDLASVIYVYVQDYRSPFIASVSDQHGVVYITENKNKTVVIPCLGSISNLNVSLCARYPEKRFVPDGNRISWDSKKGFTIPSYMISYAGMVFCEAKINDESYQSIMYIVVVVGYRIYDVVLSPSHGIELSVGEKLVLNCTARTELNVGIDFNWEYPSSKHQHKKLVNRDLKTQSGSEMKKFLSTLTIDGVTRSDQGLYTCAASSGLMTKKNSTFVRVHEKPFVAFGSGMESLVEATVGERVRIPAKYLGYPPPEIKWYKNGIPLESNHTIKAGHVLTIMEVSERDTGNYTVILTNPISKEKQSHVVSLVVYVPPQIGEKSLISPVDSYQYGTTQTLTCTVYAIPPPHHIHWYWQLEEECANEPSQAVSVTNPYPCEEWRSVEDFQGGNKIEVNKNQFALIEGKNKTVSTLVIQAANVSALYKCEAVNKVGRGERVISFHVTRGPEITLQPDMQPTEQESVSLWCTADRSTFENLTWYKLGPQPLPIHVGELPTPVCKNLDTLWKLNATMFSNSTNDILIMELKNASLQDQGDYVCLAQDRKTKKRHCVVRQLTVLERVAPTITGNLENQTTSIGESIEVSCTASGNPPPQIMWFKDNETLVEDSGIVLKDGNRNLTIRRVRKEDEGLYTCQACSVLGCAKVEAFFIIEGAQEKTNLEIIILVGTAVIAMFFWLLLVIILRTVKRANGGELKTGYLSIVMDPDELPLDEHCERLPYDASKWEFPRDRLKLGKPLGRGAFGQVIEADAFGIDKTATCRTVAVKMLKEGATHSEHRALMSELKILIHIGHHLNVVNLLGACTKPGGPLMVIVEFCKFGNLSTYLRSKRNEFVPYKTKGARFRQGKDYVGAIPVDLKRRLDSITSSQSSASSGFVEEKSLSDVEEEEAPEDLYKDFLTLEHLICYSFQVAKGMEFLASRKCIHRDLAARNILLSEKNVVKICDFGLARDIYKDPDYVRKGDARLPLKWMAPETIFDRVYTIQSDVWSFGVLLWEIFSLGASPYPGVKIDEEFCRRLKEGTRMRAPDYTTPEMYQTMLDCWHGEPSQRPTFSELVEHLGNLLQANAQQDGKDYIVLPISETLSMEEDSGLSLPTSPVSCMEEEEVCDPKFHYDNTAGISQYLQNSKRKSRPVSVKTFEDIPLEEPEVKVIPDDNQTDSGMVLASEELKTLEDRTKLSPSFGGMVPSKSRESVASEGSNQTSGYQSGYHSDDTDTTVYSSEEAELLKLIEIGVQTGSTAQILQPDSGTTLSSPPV

With `O=c1[nH]c(=O)n(C[C@H]2C3CCC(CC3)[C@@H]2Nc2nc(-c3c[nH]c4ncc(F)cc34)ncc2F)o1` (mixture of isomers), the Ki (in general, a dissociation constant, usually derived from enzyme kinetics or from competition with a known ligand) in [1] was over 4000 nM; in data set [3], over 4000 nM; in [4], 180 nM; in data set [5], 1100 nM; in [6] it was over 4000 nM; in [7] it was 630 nM. The Ki in data set [8] is over 4000 nM; in data set [9], over 4000 nM; in data set [10] it was 270 nM; in data set [11], 2000 nM; in data set [13] it was over 4000 nM; in data set [15], 23 nM. The inhibition constant Ki in data set [16] is 210 nM; in data set [17] it was over 4000 nM; in data set [18], 1500 nM; in data set [19], over 4000 nM; in data set [20], over 4000 nM. In the data set with Influenza A virus [2], the EC50 (usually the midpoint of the concentration-response curve) is 36 nM. Besides, the 99% effect concentration (EC99) (in general, the point of the concentration-response curve where the effect stands at 99%) in the data set with Influenza A virus [2] came to 0.21 µM. Also, the pKa (commonly the negative logarithm of the acid dissociation constant) in data set [12] was determined as 5.2. Besides, the IC50 (as a rule, the concentration that gives 50% inhibition) with Influenza A virus [14] is 48 nM.

The record behind these values is ChEMBL document CHEMBL3399966, “Isosteric replacements of the carboxylic acid of drug candidate VX-787: Effect of charge on antiviral potency and kinase activity of azaindole-based influenza PB2 inhibitors” (Bioorg Med Chem Lett, 2015).
